From patent publication US4925853A, “Benzimidazoles as 5-lipoxygenase inhibitors” (Beecham Group PLC, priority 1984, dated 1990)
Structures can show the parent of a compound that is named as a salt.

How the values were obtained:
[1] = test system: carrageenin-induced pleurisy in the rat; assay: Carrageenin-induced pleurisy in the rat (Method C); assay type: in vivo; details: 1 hour before and 24 and 48 hours after carrageenin
Protocol: CARRAGEENIN-INDUCED PLEURISY IN THE RAT This model of monocyte accumulation is based on the method of R. Vinegar, J. F. Truax, J. […] [Federation Proceedings 41, 2588-2595, 1982]. 0.2 ml of a 2.0% solution of λ-carrageenin (Viscarin 402) in saline was injected intrapleurally in anaesthetised rats (wt. approx. 175-200 g). […] Exudate volume was calculated from the dilution of the phenol red injected, determined spectrophotometrically (560 nm) and cellular content estimated with a DNA assay [[…]. and Wollenberger A. Anal. Biochem. 77, 464-470, 1977]. This test is used to indicate anti-inflammatory activity against carrageenin-induced pleurisy in the rat.

5-lipoxygenase enzyme = assay: RBL-1 5-Lipoxygenase Screen (Method B), cell free; assay type: biochemical; details: 2 min
Protocol: RBL-1 5-Lipoxygenase Screen
5-Lipoxygenase enzyme was prepared as a 10,000 g supernatant from RBL-1 cells by the method of Jakschik [Jakschik, B. A., F. F. Sun, L. M. Lee, and M. M. Steinhoff, 1980, Biochem. Biophys. Res. Comm. 95, 103]. The 10,000 g supernatant was diluted with homogenization buffer to the equivalent of 1.5-2.5×10^7 cells. ml^-1 and made 2 mM with respect to CaCl2. Aliquots of 0.5 ml were then dispensed into tubes, and incubated at 29° C. with 5 μl ethanol or compound in ethanol at the desired concentration for 2 min. Then […] arachidonic acid was added in buffer to give final concentration of 6.3 μM and 0.2 μCi per incubation, and the reaction continued at 29° C. for 2 min. The reaction was terminated by adding 1 ml of acetone and cooling on ice, 0.5 ml of ice-cold saline and 10 μl of 2N formic acid were added, and the mixture was extracted with 2×2 ml of chloroform. The extract was stored under N2 at -20° C. until analysis by chromatography.
This test is used to show inhibition of the 5-lipoxygenase enzyme in a mammalian RBL-1 cell free 5-lipoxygenase assay.

[2] = test system: development of arthritis in the rat adjuvant arthritis model; assay: Rat Adjuvant Arthritis Model (Method A); assay type: in vivo; details: 25 mg/kg (i.p.)
Protocol: Rat Adjuvant Arthritis Model
The test is as described by Newbould, Brit. J. Pharmacol., 1963, 21, 127-136.
It is used to indicate anti-rheumatic activity as shown by inhibiting the development of arthritis in the rat adjuvant arthritis model. The compound of Example 1 is active at a concentration of 25 mg/kg (i.p.)

SRS-A release = assay: Rat passive peritoneal anaphylaxis (PPA), SRS-A release (Method D); assay type: in vivo; details: final concentration of 2×10^-4 M, intraperitoneal
Text: Rat passive peritoneal anaphylaxis (PPA) The method is essentially similar to that described previously by Ross et al (Ross, Janet W., Smith, H. and Spicer, Barbara A. Increased vascular permeability during passive peritoneal anaphylaxis in the rat. Int. Arch. Allergy appl. Innum. 51, 226, 1976.) Charles River Sprague Dawley male rats of 225-275 g and Dunkin Hartley male white guinea pigs of 300-700 g were used. Charles River Sprague Dawley male rats of 225-275 g were given intraperitoneal injections of 0.5 ml of either Bordetella pertussis vaccine (4×10^10 organisms/ml; Burroughs Wellcome, London) or Pertussis vaccine absorbed (not less than 41.u. B. pertussis antigen with aluminium hydroxide; The Lister Institute Elstree, England), and subcutaneous injections of 0.5 ml of an emulsion of 100 mg of ovalbumin (chicken egg albumin; crystallised and lyophilised, grade V, Sigma, London) in 2 ml of isotonic saline and 3 ml of incomplete Freund's adjuvant. The rats were bled by cardiac puncture, under ether anaesthesia,on day 18, the blood was pooled and the serum separated, stored at -20° C. and thawed only once before use. The serum produced 72 hour passive cutaneous anaphylaxis activity in recipient rats to a dilution of 1:64 which was decreased to a dilution of less than 1:2 by heating at 56° C. for 4 hours. Rats were given intraperitoneal injections of 2 ml of a 1:5 dilution of the rat anti-serum in isotonic saline. Two hours later 0.3 ml of 5% solution of Pontamine Sky Blue (Raymond A. Lamb, London) in isotonic saline was injected intraveneously, followed by an intraperitoneal injection of the test compound in 1 ml of saline; (control rats received 1 ml of saline); followed 2.5 minutes later by an intraperitoneal injection of 5 ml of a Tyrode solution containing 50 μg/ml heparin and 0.4 mg/ml of ovalbumin. The concentrations of the compounds were quoted as that in the 6 ml of fluid injected intraperitoneally. […]

Compound	% inhibition of SRS-A release compared to controls (SRS-A release) [%]	anti-inflammatory activity against carrageenin-induced pleurisy ([1]; 25 mg/kg (p.o.))	further results
Cc1ccc(O)c2[nH]c(CCCCCC(=O)O)nc12 [Example 18, 6-(4-Hydroxy-7-methyl-benzimidazol-2-yl)-hexanoic acid hydrochloride hydrate (3:3:1)]			anti-inflammatory activity against carrageenin-induced pleurisy ([1]; 12 mg/kg (i.p)): active
Cc1ccc(O)c2[nH]c(Cc3ccccc3)nc12 [Example 1, 2-Benzyl-4-hydroxy-7-methylbenzimidazole]			percentage inhibition (5-lipoxygenase; formation of 5-HETE and 5,12-diHETE) (5-lipoxygenase enzyme; 0.5 μM concentration, p<0.01): 36.0 percentage; percentage inhibition (5-lipoxygenase; formation of 5-HETE and 5,12-diHETE) (5-lipoxygenase enzyme; 5 μM concentration, p<0.001): 78.1 percentage; anti-rheumatic activity: inhibition of the development of arthritis in the rat adjuvant arthritis model [2]: active
COc1ccc(Cc2nc3c(C)ccc(O)c3[nH]2)cc1OC.Cl [Example 26, 2-(3',4'-Dimethoxybenzyl)-4-hydroxy-7-methylbenzimidazole hydrochloride]	55		
Cc1ccc(Cc2nc3c(C)ccc(O)c3[nH]2)cc1 [Example 10, 2-(4'-Methylbenzyl)-4-hydroxy-7-methylbenzimidazole]		active	
COc1cc(Cc2nc3c(C)ccc(O)c3[nH]2)cc(OC)c1OC.Cl [Example 25, 2-(3',4',5'-Trimethoxybenzyl)-4-hydroxy-7-methylbenzimidazole hydrochloride]	59		
COc1ccc(Cc2nc3c(C)ccc(O)c3[nH]2)cc1.Cl [Example 12, 2-(4'-Methoxybenzyl)-4-hydroxy-7-methylbenzimidazole hydrochloride]	58	active	
